Data: publication PMC12518639, “Apomorphine is a novel necroptosis inhibitor targeting mixed lineage kinase domain-like protein oligomerization” (Cell Death Discovery, 2025)
Counter-ions that a name gives are not always drawn. Like-named read-outs stand apart in the source and are kept apart here.

Experiments:
ulcerative colitis = system: ulcerative colitis; design: method as in PMID 34389633; conditions: phase II trial; cited from earlier work
p-MLKL and p-RIP1 = experiment: Western blot of cytosol and membrane fractions; type: cell-based, human; conditions: THP-1, TBZ, 20 μM
Experimental: (§1) The cells were harvested and lysed in 1× RIPA buffer (R4100-010, GenDEPOT, Katy, TX, USA) containing protease (P3100-001, GenDEPOT) and phosphatase (1862495, Thermo Fisher Scientific) inhibitors. WCLs were then centrifuged at 20,000×g for 30 min at 4 °C and subjected to non-reducing or reducing 8–12% SDS-PAGE gel electrophoresis. The membrane was blocked with 5% non-fat milk in TBS and probed with antibodies. Antibodies to hMLKL (14993S), mMLKL (97705S), phospho-hMLKL (Ser358) (91689S), phospho-mMLKL (Ser345) (37333S), phospho-hRIP1 (Ser166) (65746S), mRIP1 (3493S), phospho-mRIP1 (Ser321) (38662S), phospho-hRIP3 (Ser227) (93654), mRIP3 (95702S), p-mRIP3 (Thr231/Ser232) (91702S), and LDH (2012S) (Cell Signaling Technology, Danvers, MA, USA), and GAPDH (LF-PA0018, Abfrontier, S. Korea), hRIP1 (ab72139, Abcam, Cambridge, UK), hRIP3 (sc-135170, Santa Cruz Biotechnology, Dallas, TX, USA), HMGB1 (ab78923, Abcam), and LAMP1 (ab24170, Abcam) antibodies were used.
Cell membrane fractionation was performed to determine whether MLKL oligomers were retained in the cell membrane fraction. Briefly, THP-1 cells were harvested and resuspended in 20 mM TBS (pH 7.4) containing 10 mM KCl, 1 mM MgCl2, protease inhibitor (P3100-001, GenDEPOT), and phosphatase inhibitor (1862495, Thermo Fisher Scientific). The cell suspension was passed through a 22-gauge needle and centrifuged at 20,000×g for 15 min and stored as the cytoplasmic fraction. The pellet was resuspended in lysis buffer and stored as the crude membrane fraction.
(§2) Fig. S1 Assessment of p-MLKL inhibition to identify MLKL-targeting molecules. (A) Quantification graph corresponding to Fig. 1C. THP-1 cells were treated with TBZ in the presence of secondarily selected compounds (S1–S72, 20 μM). Whole-cell lysates (WCLs) were collected and subjected to Western blot analysis under reducing conditions using antibodies against p-MLKL, MLKL, and GAPDH. The p-MLKL/MLKL ratio was quantified and compared to that of TBZ-treated cells. Data represent the mean of three independent experiments. (B) Quantification graph corresponding to Fig. 1D. THP-1 cells were treated with TBZ in the presence of third-round selected compounds (S1–S62, 20 μM). Cytosolic and membrane fractions were collected and analyzed by Western blot under reducing conditions. The levels of p-MLKL and p-RIP1 were normalized to LDH (cytosolic marker) and LAMP1 (membrane marker), respectively. Quantified ratios were compared to those of TBZ-treated cells (n = 3 independent experiments).

THP-1-HMGB1-Lucia cells = experiment: TBZ-induced necroptosis screening by HMGB1-luciferase release; type: cell-based, human; conditions: 8 h, read-out: % Inhibition (luciferase activity relative to TBZ-treated supernatant); for activity at 20 µM: Homo sapiens
Experimental: (§3) To identify potential inhibitors of the necroptosis pathway targeting MLKL or the process of p-MLKL pore formation on the membrane, we screened a library of 2150 compounds, including FDA-approved drugs and those in phase 1–3 clinical trials, using THP-1-HMGB1-Lucia™ cells expressing the HMGB1-luciferase fusion protein. The cells were treated with a necroptosis-inducing mixture containing TNF-α, BV6, and Z-VAD-FMK (TBZ) in addition to the compound library (Fig. 1A). The supernatants were harvested to measure luciferase activities for necroptosis. The luciferase activities of cell supernatants treated with TBZ alone were considered as the maximum release (100%) of HMGB1-luciferase. NEC-1, a known RIP1 inhibitor used in both humans and mice, was used as a positive control. […] Next, we performed a propidium iodide (PI) uptake assay to exclude cytotoxic compounds using THP-1 cells. Then, we selected candidate molecules that were arbitrarily less than 30% of those treated with TBZ. […] Next, the inhibition levels of p-MLKL were tested to select MLKL-targeting molecules (Figs. 1C and S1A). Compounds that reduced p-MLKL levels to less than 30% of TBZ-treated controls were considered as potential inhibitors of MLKL phosphorylation. Conversely, compounds that maintained p-MLKL levels above 70% were selected because they are presumed to prevent the formation of pores in the plasma membrane by interfering with oligomerization.
A clinical chemical library containing 2150 items (Korea Chemical Bank, South Korea), under phase 1–3 clinical trials, including FDA-approved drugs, was used to screen for necroptosis inhibitors. Each chemical was dissolved in DMSO and diluted to 20 μM in DPBS for treatment.
THP-1-HMGB1-Lucia^TM cells were pretreated with the pan-caspase inhibitor Z-VAD-FMK (50 μM, tlrl-vad, InvivoGen) and each chemical for 1 h, and followed by TNF-α (100 ng/mL, TNF0501, NKMAXBio, Seongnam, S. Korea) and Smac mimetic BV6 (10 μM, B1332-5, Biovision, Santa Clara, CA, USA), termed TBZ mixture, were added for necroptosis screening. The RIP1 inhibitor, NEC-1 (1846, Biovision), and MLKL inhibitor, NSA (432531-71-0, Sigma-Aldrich, St. Louis, MO, USA), were used as controls. The cell supernatant was harvested to measure HMGB1 levels using a luciferase assay kit (E1500, Promega, Madison, WI, USA) by a luminometer (Centro XS3 LB 960, Berthold Technologies, Bad Wildbad, Germany). The inhibition of necroptosis (%) was calculated as: (sample-treated data – medium-only data) × 100/(TBZ-treated data – medium-only data). APO [STK088477, (6aS)-6-methyl-5,6,6a,7-tetrahydro-4H-dibenzo[de,g]quinoline-10,11-diol, Vitas-M Laboratory, Hong Kong] was stored at −70 °C after aliquoting with DMSO. APO was used after dilution in DPBS. APO is susceptible to auto-oxidation in solution in the presence of light and air. DPBS containing 5 mM DTT was used for Re-APO. Ox-APO was prepared by incubating APO in DPBS at 25 °C for 24 h in the presence of light and air, followed by removal of any precipitate by filtration through 0.2 μm.

p-MLKL = experiment: Western blot of phosphorylated MLKL in whole cell lysates; type: cell-based, human; conditions: Homo sapiens, read-out: p-MLKL/MLKL ratio relative to TBZ-treated cells (% Value)
Experimental: as §3, §1
as §2, with “THP-1 cells were treated with TBZ in the presence of secondarily selected compounds (S1–S72, 20 μM).” left out, “THP-1 cells were treated with TBZ in the presence of third-round selected compounds (S1–S62, 20 μM).” left out

[1] = 20 μM compound with TBZ, TBZ alone = 100, DPBS = 0
[2] = THP-1, TBZ and 20 μM compound, 8 h, whole cell lysates

Row | Compound | activity at 20 µM (THP-1-HMGB1-Lucia cells; [1]) [%] | activity at 20 µM (p-MLKL; [2]) [%] | other results
1 | CN1C(=O)[C@@H](NC(=O)c2nnc(Cc3ccccc3)[nH]2)COc2ccccc21 [GSK2982772] | – | – | therapeutic benefit (ulcerative colitis): failed to show significant therapeutic benefit; tolerability in humans (ulcerative colitis): well tolerated
2 | CN1CCN(c2ccc(Nc3c4ccccc4nc4ccccc34)cc2)CC1 [S1, JP-1302] | – | – | RIP1 phosphorylation (p-MLKL and p-RIP1): seemed to inhibit; activity (THP-1-HMGB1-Lucia cells; [1]): 0.4%
3 | COc1cc2ncnc(Nc3cccc(Cl)c3)c2cc1OC [S3, Tyrphostin] | 7.5 | 70 | effect on p-MLKL levels in both cytosolic and membrane fractions (p-MLKL and p-RIP1): almost no effect
4 | CCCCC1C(=O)N(c2ccccc2)N(c2ccc(O)cc2)C1=O (centres unmarked) [S4, Oxyphenbutazone] | 0 | 38 | –
5 | Cc1ccc(Nc2nccc(N(C)c3ccc4c(C)n(C)nc4c3)n2)cc1S(N)(=O)=O [S10, Pazopanib] | 9.4 | 86 | –
6 | CC(=O)Oc1ccccc1C(=O)Nc1ncc([N+](=O)[O-])s1 [S15, Nitazoxanide] | 1.2 | 100 | effect on p-MLKL levels in both cytosolic and membrane fractions (p-MLKL and p-RIP1): almost no effect
7 | CC1(C)CC[C@]2(C(=O)O)CC[C@]3(C)[C@H](C(=O)C=C4[C@@]5(C)C=C(C#N)C(=O)C(C)(C)[C@@H]5CC[C@]43C)[C@@H]2C1 [S16, Bardoxolone] | 0 | 0 | –
8 | Cc1ccc(C(=O)Nc2ccc(CN3CCN(C)CC3)c(C(F)(F)F)c2)cc1C#Cc1cnc2cccnn12 [S17, Ponatinib] | – | – | activity at 20 µM (THP-1-HMGB1-Lucia cells): 4.5%; activity at 20 µM (p-MLKL; THP-1, 8 h): 2%
9 | O=C(Nc1ccc(Br)cc1)c1cccc(S(=O)(=O)Nc2ccc(Br)cc2)c1 [S19, N-(4-Bromophenyl)-3-[[(4-bromophenyl)amino]sulfonyl]benzamide] | 5.3 | 55 | –
10 | Cc1ncc(-c2ccnc(Nc3ccc(S(C)(=O)=O)cc3)n2)n1C(C)C [S28, AZD 5438] | 0 | 55 | –
11 | CC(C)(C)c1nc(-c2cccc(NS(=O)(=O)c3c(F)cccc3F)c2F)c(-c2ccnc(N)n2)s1 [S31, Dabrafenib] | 4.5 | 0 | –
12 | C=C1C(=O)O[C@@H]2/C=C(\C)CC/C=C(\C)CC[C@@H]12 [S35, Costunolide] | 9 | 30 | –
13 | C=C1C(=O)O[C@H]2[C@H]1CC/C(C)=C/CC[C@@]1(C)O[C@@H]21 [S38, Parthenolide] | 0 | 40 | –
14 | COc1cc2nccc(Oc3ccc(NC(=O)Nc4cc(C)on4)c(Cl)c3)c2cc1OC [S46, Tivozanib] | 9 | 18 | –
15 | O=C1c2c(O)ccc(O)c2C(=O)c2c(NCCNCCO)ccc(NCCNCCO)c21 [S58, Mitoxantrone hydrochloride] | 7.6 | 39 | –
16 | CC[C@@]1(O)C(=O)OCc2c1cc1n(c2=O)Cc2cc3c(CN(C)C)c(O)ccc3nc2-1 [S65, Topotecan hydrochloride] | 5.2 | – | –
17 | COc1cccc2c1C(=O)c1c(O)c3c(c(O)c1C2=O)C[C@@](O)(C(=O)CO)C[C@@H]3O[C@H]1C[C@H](N)[C@H](O)[C@H](C)O1 [S66, Doxorubicin] | 8.6 | – | –
18 | O=S(=O)(c1cccc2cnccc12)N1CCCNCC1 [S68, Fasudil hydrochloride] | 6 | – | –
19 | O=C(N[C@H](CO)[C@H](O)c1ccc([N+](=O)[O-])cc1)C(Cl)Cl [S69, Chloramphenicol] | 0 | – | –
20 | CN(C)CCOC(c1ccccc1)c1ccccc1 [S70, Diphenhydramine] | 19.1 | – | –
21 | CCCc1c(-c2ccc(O)cc2)nn(-c2ccc(O)cc2)c1-c1ccc(O)cc1 [S71, PPT] | – | – | activity (THP-1-HMGB1-Lucia cells; [1]): 1.5%
22 | O=C(Nc1ccc([N+](=O)[O-])cc1Cl)c1cc(Cl)ccc1O [S72, Niclosamide] | 0.9 | 35 | –
23 | JTE 013 [S11] | – | – | activity (THP-1-HMGB1-Lucia cells; [1]): 5.8%
